The test system of assay [1] is HBV. Put plainly: Antiviral activity in AML12HBV10 cells (HBV DNA dot-blot hybridization). In kind it is cell-based. As to conditions: Hepatitis B virus, Table 33, scaffold (XIV) drawing 940, 48 hours. As to the method: The antiviral efficacy of the compounds of the disclosure, as presented in Tables 21 through 39 were determined in AML12HBV10 cells. AML12HBV10 is an immortalized murine hepatocyte (AML12)-derived stable cell line that supports robust HBV replication in a tetracycline inducible manner (Xu et al.). The cells were seeded into 96 well plates at a density of 2×10^4 cells per well and cultured in DMEM/F12 media with 10% fetal bovine serum in the absence of tetracycline to allow pgRNA transcription and HBV DNA replication. One day after seeding, cells were left untreated or treated with a serial dilution of testing compounds, ranging from 50 μM to 0.39 μM, for 48 hours. Cells were then lysed by adding into each well of 100 μl lysis buffer containing 10 mM Tris-HCl (pH 7.6), 1 mM EDTA, 100 mM NaCl and 1% NP-40 and incubated at 37° C. for 30 minutes. Half amount (50 μl) of cell lysate from each well was combined with equal volume of denaturing solution containing 0.5N NaOH and 1.5M NaCl. After 5 minute incubation, 100 μl of neutralization solution (1M Tris-HCl, pH 7.4, 1.5M NaCl) was added into each well. The denatured cell lysates (totally 200 μl) were applied onto Nylon membrane using 96-well dot-blot manifold (Biorad). HBV DNA in the cell lysates were determined by dot-blot hybridization with alpha-^32P-UTP-labelled riboprobe specific for HBV minus strand DNA.

Assay [2] relates to HBV. Put plainly: Antiviral activity in HepDES19 cells (core-associated HBV DNA, Southern blot hybridization). In kind it is cell-based. As to conditions: Hepatitis B virus, 144 h, Table 33, scaffold (XIV) drawing 940, 6 days.
Protocol: Two days after seeding, the cells were mock-treated or treated with a serial dilution of compounds of the disclosure, ranging from 10 μM to 0.018 μM, for 6 days in the absence of tetracycline. Upon the completion of treatment, cells were lysed by adding into each well of the 12-well plates 0.5 ml of lysis buffer containing 10 mM Tris-HCl (pH 8.0), 1 mM EDTA, 1% NP40 and 2% sucrose and incubating at 37° C. for 10 minutes. Cell debris and nuclei were removed by centrifugation and the supernatant was mixed with 130 μl of 35% polyethylene glycol (PEG) 8000 containing 1.5 M NaCl. After 1 hour incubation in ice, viral nucleocapsids were pelleted by centrifugation at 6,000×g for 5 min at 4° C., followed by 1 hour digestion at 37° C. in 400 μl of digestion buffer containing 0.5 mg/ml pronase (Calbiochem), 0.5% SDS, 150 mM NaCl, 25 mM Tris-HCl (pH 8.0) and 10 mM EDTA. The digestion mixture was extracted twice with phenol and DNA was precipitated with ethanol, dissolved in TE buffer (10 mM Tris-HC 1, pH 8.0; 0.1 mM EDTA). One half of the DNA sample from each well was resolved by electrophoresis into a 1.5% agarose gel. The gel was then subjected to denaturation in a solution containing 0.5 M NaOH and 1.5 M NaCl, followed by neutralization in a buffer containing 1 M Tris-HCl (pH7.4) and 1.5 M NaCl. DNA was then blotted onto Hybond-XL membrane (GE Health care) in 20×SSC buffer.

The EC50 is the concentration needed to bring the measured effect to its halfway point. A higher EC50 goes with a need for much substance. In turn, `CC(C)[C@@H](C)NS(=O)(=O)c1ccc(Cl)c(C(=O)Nc2ccc(F)c(F)c2)c1` [XIV: A=H, B=Cl, C=H, D=H, (R)-2-chloro-N-(3,4-Difluorophenyl)-5-(N-(3-methylbutan-2-yl)sulfamoyl)benzamide] returned an EC50 with HBV [1] of less than 1000 nM.
Turning to `CC(C)[C@@H](C)NS(=O)(=O)c1cc(C(=O)Nc2ccc(F)c(F)c2)c(F)cc1F` [XIV: A=H, B=F, C=H, D=F, (R)-N-(3,4-Difluorophenyl)-2,4-difluoro-5-(N-(3-methylbutan-2-yl)sulfamoyl)benzamide], in the assay with HBV [1], the EC50 lay within 1000 to 5000 nM.
Turning to `COc1ccc(S(=O)(=O)N[C@H](C)C(C)C)cc1C(=O)Nc1ccc(F)c(F)c1` [XIV: A=H, B=OMe, C=H, D=H, (R)-N-(3,4-Difluorophenyl)-2-methoxy-5-(N-(3-methylbutan-2-yl)sulfamoyl)benzamide], the EC50 in the assay on HBV [1] and in the assay on HBV [2] was less than 1000 nM each time.
As for `Cc1ccc(S(=O)(=O)N[C@H](C)C(C)C)cc1C(=O)Nc1ccc(F)c(F)c1` [XIV: A=H, B=Me, C=H, D=H, (R)-N-(3,4-Difluorophenyl)-2-methyl-5-(N-(3-methylbutan-2-yl)sulfamoyl)benzamide], the EC50 in the assay on HBV [1] and with HBV [2] was less than 1000 nM throughout.

These data come from patent publication US9938236B2, “Antiviral agents against HBV infection” (DREXEL UNIVERSITY, priority 2012, dated 2018).
